Experimental data as given in PMC12126180 (Journal of chemical information and modeling, 2021).

Assays:
SARS-CoV-2 WA1 strain = format: cell-based; conditions: Vero E6 cells
COVID-19 = conditions: 1063 patients, cited from earlier work

Question: Which “activity against SARS-CoV-2 replication in words” value (SARS-CoV-2 WA1 strain) does the source give for `CC(C)(O)c1ccccc1CC[C@@H](SCC1(CC(=O)O)CC1)c1cccc(/C=C/c2ccc3ccc(Cl)cc3n2)c1` [Montelukast] here?
Answer: weakly active

Question: What does the source list for `CCC(CC)COC(=O)[C@H](C)N[P@](=O)(OC[C@H]1O[C@@](C#N)(c2ccc3c(N)ncnn23)[C@H](O)[C@@H]1O)Oc1ccccc1` [Remdesivir]?
Answer: mortality rate (COVID-19; placebo 11.9%): 7.1%; recovery time shortened with respect to the placebo (COVID-19): four
